The structures appear in SMILES notation.

In assay [1] the target is Tyrosine-protein kinase SYK (Homo sapiens) (UniProt P43405). Put plainly: Inhibition of full length human N-terminal GST-tagged SYK (1 to 635 residues) expressed in baculovirus expression system using fluorescence labelled Blk/Lyntide as substrate at 50 times IC50 by electrophoretic mobility shift assay relative to control. A general note: In EMSA bound probe runs differently from free probe, usually more slowly.

Assay [2] has as its target T1, Calcium/calmodulin-dependent protein kinase type IV (Homo sapiens) (UniProt Q16566).
T1 sequence (whole entry): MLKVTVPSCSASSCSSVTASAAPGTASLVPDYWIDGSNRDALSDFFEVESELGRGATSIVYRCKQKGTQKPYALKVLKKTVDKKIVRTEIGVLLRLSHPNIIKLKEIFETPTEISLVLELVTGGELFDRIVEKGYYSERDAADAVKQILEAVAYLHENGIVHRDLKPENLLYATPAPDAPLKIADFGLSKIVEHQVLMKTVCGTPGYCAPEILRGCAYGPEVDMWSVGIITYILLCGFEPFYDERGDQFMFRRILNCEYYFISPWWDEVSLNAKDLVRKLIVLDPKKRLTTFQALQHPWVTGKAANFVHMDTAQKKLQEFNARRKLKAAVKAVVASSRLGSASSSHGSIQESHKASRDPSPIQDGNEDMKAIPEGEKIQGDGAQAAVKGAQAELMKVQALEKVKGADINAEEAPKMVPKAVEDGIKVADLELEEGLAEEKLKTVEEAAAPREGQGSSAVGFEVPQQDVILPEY
The assay is described as follows: Inhibition of full length human N-terminal GST-tagged CAMK4 (1 to 473 residues) expressed in baculovirus expression system using fluorescence labelled GS peptide as substrate at 50 times IC50 by electrophoretic mobility shift assay relative to control.

Assay [3] addresses T2, Serine/threonine-protein kinase Nek2 (Homo sapiens) (UniProt P51955).
T2 sequence (whole entry): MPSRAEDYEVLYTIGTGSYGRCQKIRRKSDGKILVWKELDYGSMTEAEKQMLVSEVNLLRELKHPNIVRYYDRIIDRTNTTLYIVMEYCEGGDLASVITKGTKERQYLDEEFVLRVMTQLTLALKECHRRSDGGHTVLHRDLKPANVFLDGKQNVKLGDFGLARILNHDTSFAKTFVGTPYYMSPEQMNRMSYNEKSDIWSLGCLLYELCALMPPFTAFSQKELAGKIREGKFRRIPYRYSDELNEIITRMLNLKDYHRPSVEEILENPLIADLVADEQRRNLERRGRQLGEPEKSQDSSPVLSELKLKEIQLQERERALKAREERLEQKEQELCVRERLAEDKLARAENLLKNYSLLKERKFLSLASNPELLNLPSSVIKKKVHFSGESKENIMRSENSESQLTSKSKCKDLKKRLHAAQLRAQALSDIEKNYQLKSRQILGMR
Put plainly: Inhibition of full length human N-terminal His-tagged NEK2 (1 to 445 residues) expressed in baculovirus expression system using fluorescence labelled CDK7 peptide substrate at 50 times IC50 by electrophoretic mobility shift assay relative to control.

Assay [4] addresses Tyrosine-protein kinase CSK (Homo sapiens) (UniProt P41240). Put plainly: Inhibition of full length human N-terminal GST-tagged CSK (1 to 450 residues) expressed in baculovirus expression system using fluorescence labelled srctide as substrate at 50 times IC50 by electrophoretic mobility shift assay relative to control.
Assay [5] concerns the target Protein-tyrosine kinase 2-beta (Homo sapiens) (UniProt Q14289). Put plainly: Inhibition of full length human N-terminal GST-tagged PYK2 (1 to 967 residues) expressed in baculovirus expression system using fluorescence labelled Blk/Lyntide as substrate at 50 times IC50 by electrophoretic mobility shift assay relative to control.
Assay [6] concerns the target Mitogen-activated protein kinase 9 (Homo sapiens) (UniProt P45984). Put plainly: Inhibition of human N-terminal GST-tagged JNK2 catalytic domain (1 to 364 residues) expressed in Escherichia coli using fluorescence labelled modified Erktide as substrate at 50 times IC50 by electrophoretic mobility shift assay relative to control.
The target in assay [7] is Fibroblast growth factor receptor 1 (Homo sapiens) (UniProt P11362). Put plainly: Inhibition of human N-terminal GST-tagged FGFR1 cytoplasmic domain (398 to 822 residues) expressed in baculovirus expression system using fluorescence labelled CSKtide as substrate at 50 times IC50 by electrophoretic mobility shift assay relative to control.
Chain of Fibroblast growth factor receptor 1 (Homo sapiens) (P11362 22-822 limits assumed): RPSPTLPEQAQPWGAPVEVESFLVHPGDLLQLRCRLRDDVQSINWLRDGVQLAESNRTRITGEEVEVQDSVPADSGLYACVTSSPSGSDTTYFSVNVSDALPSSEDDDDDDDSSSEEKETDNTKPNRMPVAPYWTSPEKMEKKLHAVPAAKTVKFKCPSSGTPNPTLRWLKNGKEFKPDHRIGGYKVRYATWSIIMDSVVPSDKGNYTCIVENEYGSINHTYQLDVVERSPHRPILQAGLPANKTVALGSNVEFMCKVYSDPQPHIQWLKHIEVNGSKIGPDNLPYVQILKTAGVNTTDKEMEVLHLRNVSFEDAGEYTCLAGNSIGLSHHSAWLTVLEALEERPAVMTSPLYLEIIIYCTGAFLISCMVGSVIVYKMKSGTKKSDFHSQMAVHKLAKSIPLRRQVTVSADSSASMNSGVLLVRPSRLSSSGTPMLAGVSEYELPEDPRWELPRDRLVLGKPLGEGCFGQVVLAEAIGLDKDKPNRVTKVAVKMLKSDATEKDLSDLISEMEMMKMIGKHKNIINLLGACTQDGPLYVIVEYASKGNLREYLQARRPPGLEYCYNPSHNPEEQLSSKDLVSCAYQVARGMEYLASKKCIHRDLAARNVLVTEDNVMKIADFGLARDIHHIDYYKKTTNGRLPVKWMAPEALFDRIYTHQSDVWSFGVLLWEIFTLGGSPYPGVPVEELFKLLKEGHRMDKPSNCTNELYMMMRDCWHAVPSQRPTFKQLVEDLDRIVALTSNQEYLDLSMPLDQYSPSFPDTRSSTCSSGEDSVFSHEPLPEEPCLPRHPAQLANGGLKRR
Assay [8] concerns the target Tyrosine-protein kinase Lck (Homo sapiens) (UniProt P06239). The assay is described as follows: Inhibition of full length human N-terminal GST-tagged LCK (1 to 500 residues) expressed in baculovirus expression system using fluorescence labelled srctide as substrate at 50 times IC50 by electrophoretic mobility shift assay relative to control.
Assay [9] has as its target Tyrosine-protein kinase ABL1 (Homo sapiens) (UniProt P00519). Put plainly: Inhibition of full length human N-terminal His-tagged ABL (2 to 1130 residues) expressed in baculovirus expression system using fluorescence labelled ABLtide as substrate at 50 times IC50 by electrophoretic mobility shift assay relative to control.
In assay [10] the target is [Pyruvate dehydrogenase (acetyl-transferring)] kinase isozyme 1, mitochondrial (Homo sapiens) (UniProt Q15118). Put plainly: Inhibition of full length human N-terminal GST-tagged PDK1 (1 to 436 residues) expressed in baculovirus expression system using fluorescence labelled PDHKtide as substrate at 50 times IC50 by electrophoretic mobility shift assay relative to control.

Assay [11] addresses T3, Serine/threonine-protein kinase Sgk1 (Homo sapiens) (UniProt O00141).
T3 sequence (whole entry): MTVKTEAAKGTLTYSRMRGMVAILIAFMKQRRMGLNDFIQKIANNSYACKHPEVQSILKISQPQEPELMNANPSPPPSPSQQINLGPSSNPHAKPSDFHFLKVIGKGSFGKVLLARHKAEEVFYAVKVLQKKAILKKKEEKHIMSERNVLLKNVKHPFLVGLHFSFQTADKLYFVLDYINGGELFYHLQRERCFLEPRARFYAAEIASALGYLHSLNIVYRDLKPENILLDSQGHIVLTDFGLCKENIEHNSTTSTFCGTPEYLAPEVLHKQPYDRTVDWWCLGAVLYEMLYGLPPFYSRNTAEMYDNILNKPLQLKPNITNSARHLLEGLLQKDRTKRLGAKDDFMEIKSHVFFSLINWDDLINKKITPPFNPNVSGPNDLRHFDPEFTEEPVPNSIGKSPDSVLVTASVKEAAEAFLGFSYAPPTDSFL
The assay is described as follows: Inhibition of human N-terminal GST-tagged SGK (61 to 431 residues) expressed in baculovirus expression system coexpressing His-tagged PDK1 (1 to 556 residues) using fluorescence labelled SGKtide as substrate at 50 times IC50 by electrophoretic mobility shift assay relative to control.

The target of assay [12] is Angiopoietin-1 receptor (Homo sapiens) (UniProt Q02763). Put plainly: Inhibition of human N-terminal GST-tagged TIE2 receptor cytoplasmic domain (771 to 1124 residues) expressed in baculovirus expression system using fluorescence labelled Blk/Lyntide as substrate at 50 times IC50 by electrophoretic mobility shift assay relative to control.
Assay [13] has as its target Serine/threonine-protein kinase PAK 2 (Homo sapiens) (UniProt Q13177). Put plainly: Inhibition of full length human N-terminal GST-tagged PAK2 (1 to 524 residues) expressed in baculovirus expression system using fluorescence labelled DAPK1tide as substrate at 50 times IC50 by electrophoretic mobility shift assay relative to control.

Chain of Tyrosine-protein kinase Lck (Homo sapiens) (P06239 2-509 limits assumed): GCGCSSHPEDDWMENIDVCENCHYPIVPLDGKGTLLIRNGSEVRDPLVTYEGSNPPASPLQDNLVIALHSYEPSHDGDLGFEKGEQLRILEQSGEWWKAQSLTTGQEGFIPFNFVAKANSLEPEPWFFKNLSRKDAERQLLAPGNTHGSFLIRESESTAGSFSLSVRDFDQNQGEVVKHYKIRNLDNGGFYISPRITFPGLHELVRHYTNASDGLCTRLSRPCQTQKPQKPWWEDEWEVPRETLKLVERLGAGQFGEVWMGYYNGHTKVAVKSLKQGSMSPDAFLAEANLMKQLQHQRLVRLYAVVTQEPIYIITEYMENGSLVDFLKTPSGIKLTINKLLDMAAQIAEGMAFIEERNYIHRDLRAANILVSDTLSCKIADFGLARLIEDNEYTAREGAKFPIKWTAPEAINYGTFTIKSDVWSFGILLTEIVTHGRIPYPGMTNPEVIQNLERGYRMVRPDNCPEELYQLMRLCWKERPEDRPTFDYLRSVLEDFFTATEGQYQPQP
Chain of Serine/threonine-protein kinase PAK 2 (Homo sapiens) (Q13177 whole entry, the tested form may be a part): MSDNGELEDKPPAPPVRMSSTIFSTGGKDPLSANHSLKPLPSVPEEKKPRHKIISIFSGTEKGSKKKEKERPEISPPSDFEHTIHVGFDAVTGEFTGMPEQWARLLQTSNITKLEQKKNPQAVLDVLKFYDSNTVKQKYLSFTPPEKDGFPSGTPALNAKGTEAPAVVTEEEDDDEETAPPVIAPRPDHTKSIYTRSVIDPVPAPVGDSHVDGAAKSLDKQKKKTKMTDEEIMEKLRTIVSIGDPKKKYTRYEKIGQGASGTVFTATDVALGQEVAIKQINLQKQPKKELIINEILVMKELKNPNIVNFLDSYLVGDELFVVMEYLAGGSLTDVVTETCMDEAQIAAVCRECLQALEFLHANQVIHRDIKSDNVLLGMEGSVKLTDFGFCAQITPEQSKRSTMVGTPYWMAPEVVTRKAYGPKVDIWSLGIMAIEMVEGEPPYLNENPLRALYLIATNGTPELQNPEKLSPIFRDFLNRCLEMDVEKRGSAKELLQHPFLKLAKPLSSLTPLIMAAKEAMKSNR
Chain of Tyrosine-protein kinase ABL1 (Homo sapiens) (P00519 whole entry, the tested form may be a part): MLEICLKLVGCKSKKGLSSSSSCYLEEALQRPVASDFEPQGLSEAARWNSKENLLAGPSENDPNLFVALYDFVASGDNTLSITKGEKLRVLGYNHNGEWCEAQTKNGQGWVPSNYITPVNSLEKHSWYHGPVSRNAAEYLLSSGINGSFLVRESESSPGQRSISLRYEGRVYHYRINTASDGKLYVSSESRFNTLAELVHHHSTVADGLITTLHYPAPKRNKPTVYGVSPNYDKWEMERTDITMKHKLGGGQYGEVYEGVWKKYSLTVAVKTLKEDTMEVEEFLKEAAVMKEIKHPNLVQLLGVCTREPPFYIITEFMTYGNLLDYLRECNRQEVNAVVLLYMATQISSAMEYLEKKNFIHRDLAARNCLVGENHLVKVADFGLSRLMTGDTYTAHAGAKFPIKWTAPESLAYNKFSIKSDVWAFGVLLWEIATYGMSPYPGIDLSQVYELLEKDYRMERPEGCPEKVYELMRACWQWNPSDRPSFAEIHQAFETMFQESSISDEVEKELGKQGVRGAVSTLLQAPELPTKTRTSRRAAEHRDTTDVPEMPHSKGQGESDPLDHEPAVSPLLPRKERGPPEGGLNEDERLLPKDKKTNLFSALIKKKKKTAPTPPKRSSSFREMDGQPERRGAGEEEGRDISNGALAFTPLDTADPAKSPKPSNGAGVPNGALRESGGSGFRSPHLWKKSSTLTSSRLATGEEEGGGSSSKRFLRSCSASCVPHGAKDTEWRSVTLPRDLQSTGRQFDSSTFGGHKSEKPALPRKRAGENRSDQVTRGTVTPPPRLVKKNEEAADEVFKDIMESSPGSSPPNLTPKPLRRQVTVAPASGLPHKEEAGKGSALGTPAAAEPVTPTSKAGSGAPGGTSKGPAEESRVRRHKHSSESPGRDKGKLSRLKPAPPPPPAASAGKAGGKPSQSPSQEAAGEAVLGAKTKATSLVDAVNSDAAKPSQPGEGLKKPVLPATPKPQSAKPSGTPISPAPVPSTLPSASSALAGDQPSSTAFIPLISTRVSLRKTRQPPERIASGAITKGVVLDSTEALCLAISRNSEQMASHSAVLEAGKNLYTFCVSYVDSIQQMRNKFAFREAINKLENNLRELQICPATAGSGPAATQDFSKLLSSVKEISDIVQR
Chain of Mitogen-activated protein kinase 9 (Homo sapiens) (P45984 whole entry, looked up, the tested form may be a part): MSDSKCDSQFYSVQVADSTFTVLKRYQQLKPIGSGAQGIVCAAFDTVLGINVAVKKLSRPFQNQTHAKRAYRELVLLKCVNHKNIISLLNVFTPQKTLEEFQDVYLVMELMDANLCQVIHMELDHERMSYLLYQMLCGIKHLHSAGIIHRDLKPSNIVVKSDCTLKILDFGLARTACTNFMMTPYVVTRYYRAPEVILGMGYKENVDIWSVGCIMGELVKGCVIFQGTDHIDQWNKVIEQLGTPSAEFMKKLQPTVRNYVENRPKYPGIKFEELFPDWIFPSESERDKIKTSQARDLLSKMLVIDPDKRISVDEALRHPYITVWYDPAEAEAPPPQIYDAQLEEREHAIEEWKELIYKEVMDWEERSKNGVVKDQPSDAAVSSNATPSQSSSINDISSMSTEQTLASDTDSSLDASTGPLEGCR
Chain of Tyrosine-protein kinase CSK (Homo sapiens) (P41240 2-450 limits assumed): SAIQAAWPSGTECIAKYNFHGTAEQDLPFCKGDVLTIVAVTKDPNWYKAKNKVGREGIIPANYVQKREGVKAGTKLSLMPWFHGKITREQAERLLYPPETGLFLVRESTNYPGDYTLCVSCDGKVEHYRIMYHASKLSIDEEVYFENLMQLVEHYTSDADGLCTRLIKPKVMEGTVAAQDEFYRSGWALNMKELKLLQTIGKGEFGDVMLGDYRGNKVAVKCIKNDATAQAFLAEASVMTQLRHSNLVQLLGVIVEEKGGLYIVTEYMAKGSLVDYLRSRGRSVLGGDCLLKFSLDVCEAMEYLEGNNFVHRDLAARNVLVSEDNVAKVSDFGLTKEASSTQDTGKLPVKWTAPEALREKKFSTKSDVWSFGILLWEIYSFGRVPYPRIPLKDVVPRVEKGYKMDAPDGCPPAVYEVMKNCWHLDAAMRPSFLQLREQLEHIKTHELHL
Chain of Protein-tyrosine kinase 2-beta (Homo sapiens) (Q14289 whole entry, looked up, the tested form may be a part): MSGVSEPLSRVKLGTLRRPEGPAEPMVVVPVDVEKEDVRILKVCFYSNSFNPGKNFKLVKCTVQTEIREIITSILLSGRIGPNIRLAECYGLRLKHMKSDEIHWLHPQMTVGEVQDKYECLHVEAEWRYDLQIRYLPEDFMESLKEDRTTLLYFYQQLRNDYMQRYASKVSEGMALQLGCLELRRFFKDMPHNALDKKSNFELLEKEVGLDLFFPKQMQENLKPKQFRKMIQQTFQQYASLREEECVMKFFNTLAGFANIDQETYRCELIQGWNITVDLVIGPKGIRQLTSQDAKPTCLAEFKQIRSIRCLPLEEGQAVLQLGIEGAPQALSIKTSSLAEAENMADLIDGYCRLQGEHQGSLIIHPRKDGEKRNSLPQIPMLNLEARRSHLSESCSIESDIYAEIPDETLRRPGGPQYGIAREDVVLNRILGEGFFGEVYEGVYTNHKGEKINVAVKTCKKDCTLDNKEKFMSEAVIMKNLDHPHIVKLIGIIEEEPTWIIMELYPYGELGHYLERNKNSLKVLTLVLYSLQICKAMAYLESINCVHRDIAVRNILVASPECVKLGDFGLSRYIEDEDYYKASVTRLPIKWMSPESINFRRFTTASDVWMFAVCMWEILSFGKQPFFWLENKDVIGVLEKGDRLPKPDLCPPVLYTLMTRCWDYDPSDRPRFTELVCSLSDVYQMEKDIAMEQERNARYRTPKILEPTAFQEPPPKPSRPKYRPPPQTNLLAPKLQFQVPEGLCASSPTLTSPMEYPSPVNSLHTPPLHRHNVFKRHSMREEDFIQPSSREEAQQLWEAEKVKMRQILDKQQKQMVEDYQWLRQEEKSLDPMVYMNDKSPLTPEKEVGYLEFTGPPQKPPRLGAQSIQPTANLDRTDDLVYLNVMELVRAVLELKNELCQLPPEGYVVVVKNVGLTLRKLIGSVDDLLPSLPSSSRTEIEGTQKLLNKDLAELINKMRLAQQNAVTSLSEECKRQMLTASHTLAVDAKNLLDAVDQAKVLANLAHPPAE

Usually inhibition stands for the relative decrease from the control value, in per cent. For `O=C(Nc1ccc(CN2CCN(c3ccccc3)CC2)cc1)c1n[nH]c2ccccc12`, the inhibition in assay [1] is 29.7%; in [2], 0.8%; in assay [3] it was -2.3%; in assay [4], -4.3%; in [5] it was 14.2%; in [6], -1.1%. The inhibition in assay [7] was -1%; in assay [8] it was 1.8%; in assay [9] it was 3.4%; in assay [10], -2.8%; in assay [11], 11.9%; in assay [12] it was -2.5%. Besides, the inhibition in assay [13] is 0.6%.

Turning to `O=C(Nc1ccc(C(=O)N2CCN(c3ccccc3)CC2)cc1)c1n[nH]c2ccccc12`, the inhibition is 40.2% in assay [1]; 2.7% in [2]; 0.2% in assay [3]; -5% in assay [4]; 34.9% in [5]; 9.3% in assay [6]. In addition, the inhibition in [7] is 6.3%; in [8], 1.8%; in assay [9] it was 3.9%; in assay [10], 1.9%; in [11], 26.3%; in [12] it was -2%. Further, in assay [13], the inhibition was -1.6%.

In the case of `O=C(Nc1ccccc1)c1n[nH]c2ccccc12`, the inhibition in assay [1] was 73.5%; in assay [2], 21.2%; in assay [3] it was 2.3%; in [4], -0.5%; in [5] it was 49.5%; in assay [6], 24.5%. Also, the inhibition in assay [7] is 17%; in assay [8], 5.6%; in [9], 5.3%; in assay [10] it was -2.1%; in assay [11] it was 42.4%; in [12] it was 3%. For the same compound, the inhibition in assay [13] was 0.8%.

The record behind these values is ChEMBL document CHEMBL3792292, “Development of a potent and selective FLT3 kinase inhibitor by systematic expansion of a non-selective fragment-screening hit” (Bioorg Med Chem Lett, 2016).
